Data as given in patent US10898459B2, “Method of treating chronic kidney disease” (Panion & BF Biotech Inc., priority 2006, dated 2021).

Tests used:
[1] = 37° C.; cited from earlier work

Row | Substance | Intrinsic Dissolution Rates (37° C., solution of pH 8) [mg/cm^2/min] | further results
1 | ferric citrate [PAN031203A] | 3.82 | 
2 | ferric citrate [PAN031203D] | 2.95 | 
3 | ferric citrate [crystalline ferric citrate] |  | rate of dissolution (time) [1]: 10 to 12 h
4 | ferric citrate [PAN031203B] | 4.00 | 
5 | ferric citrate [PAN031203E] | 3.13 | 
6 | ferric citrate [PAN031203C] | 2.68 | 
7 | ferric citrate [STM-134, reference compound] | 1.88 | Mean Intrinsic Dissolution Rates (37° C., solution of pH 8): 1.88 mg/cm^2/min; Mean Dissolution Rates (Table 2, one value for the pair of samples -1 and -2, listed as STM-134-1): 2.47 mg/cm2/min
